Data reported in ChEMBL document CHEMBL5331131, “Discovery of Acyl-Indole Derivatives as Pan-Serotype Dengue Virus NS4B Inhibitors” (J Med Chem, 2023).
In brackets after ≈: the same amount, converted by molar mass.

Columns and labels:
dengue virus type 2 [1] = assay: Antiviral activity against DENV-2 16681 expressing eGFP infected in african green monkey Vero cells incubated with cells for 24 hrs followed by viral infection measured after 3 days by laser microscopic analysis; format: functional, organism-based
[2] = Cytotoxicity against african green monkey Vero cells by ATPlite cell viability luminescence assay; format: toxicity, cell-based; conditions: chlorocebus sabaeus
[3] = Microsomal stability in human liver microsomes assessed as intrinsic clearance preincubated for 5 mins followed by NADPH addition measured upto 60 mins by LC-MS/MS analysis; format: ADME, Microsome; conditions: time < 65 min, read-out: CLH
[4] = Microsomal stability in rat liver microsomes assessed as intrinsic clearance preincubated for 5 mins followed by NADPH addition measured upto 60 mins by LC-MS/MS analysis; format: ADME, Microsome; conditions: time < 65 min, read-out: CLH
[5] = Microsomal stability in mouse liver microsomes assessed as intrinsic clearance preincubated for 5 mins followed by NADPH addition measured upto 60 mins by LC-MS/MS analysis; format: ADME, Microsome; conditions: time < 65 min, read-out: CLH
dengue virus type 1 = assay: Antiviral activity against DENV-1 TC974#666 infected in african green monkey Vero cells incubated for 24 hrs measured after 3 days post infection; format: functional, organism-based; conditions: TC974#666, Vero
dengue virus type 3 = assay: Antiviral activity against DENV-3 H87 infected in african green monkey Vero cells incubated for 24 hrs measured after 3 days post infection; format: functional, organism-based
dengue virus type 4 = assay: Antiviral activity against DENV-4 H241 infected in african green monkey Vero cells incubated for 24 hrs measured after 3 days post infection; format: functional, organism-based; conditions: Dengue virus, H241, Vero
[6] = Clearance in Sprague-Dawley rat at 2.5 mg/kg, iv measured upto 24 hrs by LC-MS/MS analysis; format: ADME, organism-based; conditions: in vivo
[7] = Clearance in CD-1 mouse at 2.5 mg/kg, iv measured for 0.12 to 24 hrs by LC-MS/MS analysis; format: ADME, organism-based; conditions: in vivo, time 0.12-24 hrs
dengue virus type 2 [8] = assay: Antiviral activity against DENV-2 16681 infected in african green monkey Vero cells incubated for 24 hrs measured after 3 days post infection; format: functional, organism-based; conditions: Dengue virus, 16681, Vero
[9] = Volume of distribution at steady state in Sprague-Dawley rat at 2.5 mg/kg, iv measured upto 24 hrs by LC-MS/MS analysis; format: ADME, organism-based; conditions: in vivo, read-out: Vdss
[10] = Half life in Sprague-Dawley rat at 2.5 mg/kg, iv measured by LC-MS/MS analysis; format: ADME, organism-based; conditions: in vivo
[11] = Cmax in Sprague-Dawley rat at 10 mg/kg, po measured upto 24 to 48 hrs by LC-MS/MS analysis; format: ADME, organism-based; parameters: time upper 48 hrs, dose 10 mg/kg, time lower 24 hrs, route po; conditions: in vivo
[12] = AUC last in Sprague-Dawley rat at 10 mg/kg, po measured upto 24 to 48 hrs by LC-MS/MS analysis; format: ADME, organism-based; parameters: time upper 48 hrs, dose 10 mg/kg, time lower 24 hrs, route po; conditions: in vivo
[13] = Oral bioavailability in Sprague-Dawley rat at 10 mg/kg measured upto 24 to 48 hrs by LC-MS/MS analysis; format: ADME, organism-based; conditions: in vivo, time 24-48 hrs
[14] = Kinetic solubility of the compound in aqueous buffer at pH 7.4 measured after 4 hrs by UPLC/UV analysis; format: physicochemical; conditions: read-out: Kinetic_solubility
[15] = Kinetic solubility of the compound in aqueous buffer at pH 4 measured after 4 hrs by UPLC/UV analysis; format: physicochemical; conditions: read-out: Kinetic_solubility
[16] = Kinetic solubility of the compound in aqueous buffer at pH 2 measured after 4 hrs by UPLC/UV analysis; format: physicochemical; conditions: read-out: Kinetic_solubility
dengue virus type 2 [17] = assay: In vivo antiviral activity against DENV-2/RL infected in AG129 mouse assessed as viral load reduction administered at 3 to 30 mg/kg, po bid for 3 days; format: functional, organism-based; conditions: dose 3-30 mg/kg, time 3.0 day

SMILES	EC50 (dengue virus type 2 [1]; Dengue virus, 16681, Vero)	microsomal CLint [3]	microsomal CLint [4]	microsomal CLint [5]	CC50 [2]	further results
COc1cc(NC(C(=O)c2c[nH]c3cc(F)ccc23)c2ccc(C)cc2OC)cc(OCCO)c1 (centres undefined)						EC50 (dengue virus type 4): 960 nM; EC50 (dengue virus type 2 [8]): 7 nM
COc1cc(NC(C(=O)c2c[nH]c3cc(F)ccc23)c2ccc(F)cc2OC(F)(F)F)cc(OCCO)c1 (centres undefined)	170 nM				7800 nM	
COc1cc(NC(C(=O)c2c[nH]c3cc(F)ccc23)c2ccc(C(F)(F)F)cc2OC)cc(OCCO)c1 (centres undefined)						EC50 (dengue virus type 4): 770 nM; EC50 (dengue virus type 2 [8]): 3 nM
COc1cc(NC(C(=O)c2c[nH]c3c(Cl)c(OC)ccc23)c2ccc(F)cc2OC)cc(OCCO)c1 (centres undefined)	1 nM	< 8 µL/min/mg	37 µL/min/mg	9 µL/min/mg	8600 nM	
COc1cc(NC(C(=O)c2c[nH]c3c(F)c(F)ccc23)c2ccc(F)cc2OC)cc(OCCO)c1 (centres undefined)	3 nM	< 8 µL/min/mg	8 µL/min/mg	8 µL/min/mg	6600 nM	
COc1cc(NC(C(=O)c2c[nH]c3cc(F)ccc23)c2ccc(OC(F)(F)F)cc2OC)cc(OCCO)c1 (centres undefined)						EC50 (dengue virus type 4): 3430 nM; EC50 (dengue virus type 2 [8]): 22 nM
COc1cc(NC(C(=O)c2c[nH]c3cc(F)c(F)cc23)c2ccc(F)cc2OC)cc(OCCO)c1 (single isomer, unassigned; (+))	3 nM	< 8 µL/min/mg	44 µL/min/mg	10 µL/min/mg	6900 nM	
COc1cc(NC(C(=O)c2c[nH]c3cc(F)ccc23)c2ccc(F)cc2)cc(OCCO)c1 (single isomer, unassigned; (+))						EC50 (dengue virus type 2 [1]; vero): 11 nM
COc1cc(NC(C(=O)c2c[nH]c3cc(OC)c(C)cc23)c2ccc(F)cc2OC)cc(OCCO)c1 (single isomer, unassigned; (+))	3 nM	< 8 µL/min/mg	< 8 µL/min/mg	< 8 µL/min/mg	7400 nM	clearance [6]: 13.6 mL/min/kg; Vd [9]: 6.5 L/kg; half-life [10]: 5.7 h; Cmax [11]: 350 ng/mL; AUC(0-t) [12]: 4660 ng·h/mL; bioavailability [13]: 40%; solubility kinetic at 4 h [14]: 5 µM (≈ 2.54 µg/mL); solubility kinetic at 4 h [15]: 5 µM (≈ 2.54 µg/mL); solubility kinetic at 4 h [16]: 65 µM (≈ 33.1 µg/mL)
COc1cc(NC(C(=O)c2c[nH]c3c(F)cc(C)cc23)c2ccc(F)cc2OC)cc(OCCO)c1 (single isomer, unassigned; (+))	5 nM	10 µL/min/mg	13 µL/min/mg	10 µL/min/mg	5500 nM	
COc1cc(NC(C(=O)c2c[nH]c3c(C)c(F)ccc23)c2ccc(F)cc2OC)cc(OCCO)c1 (single isomer, unassigned; (+))	2 nM	< 8 µL/min/mg	< 8 µL/min/mg	< 8 µL/min/mg	5300 nM	clearance [6]: 16.4 mL/min/kg; Vd [9]: 8.5 L/kg; half-life [10]: 6.5 h; Cmax [11]: 573 ng/mL; AUC(0-t) [12]: 8290 ng·h/mL; bioavailability [13]: 88%; solubility kinetic at 4 h [14]: 2 µM (≈ 0.993 µg/mL); solubility kinetic at 4 h [15]: 3 µM (≈ 1.49 µg/mL); solubility kinetic at 4 h [16]: 34 µM (≈ 16.9 µg/mL)
COc1cc(NC(C(=O)c2c[nH]c3cc(OC)c(F)cc23)c2ccc(F)cc2OC)cc(OCCO)c1 (single isomer, unassigned; (+))	5 nM	< 8 µL/min/mg	< 8 µL/min/mg	< 8 µL/min/mg	> 8600 nM	
COc1cc(NC(C(=O)c2c[nH]c3c(C)c(Cl)ccc23)c2ccc(F)cc2OC)cc(OCCO)c1 (single isomer, unassigned; (+))	1 nM	< 8 µL/min/mg	< 8 µL/min/mg	< 8 µL/min/mg	4100 nM	clearance [6]: 10.7 mL/min/kg; Vd [9]: 6.5 L/kg; half-life [10]: 7 h; Cmax [11]: 294 ng/mL; AUC(0-t) [12]: 7600 ng·h/mL; bioavailability [13]: 54%; solubility kinetic at 4 h [14]: < 0.1 µM; solubility kinetic at 4 h [15]: < 0.1 µM; solubility kinetic at 4 h [16]: 5 µM (≈ 2.56 µg/mL)
COc1cc(NC(C(=O)c2c[nH]c3c(C)c(OC)ccc23)c2ccc(F)cc2OC)cc(OCCO)c1 (single isomer, unassigned; (+))	1 nM	< 8 µL/min/mg	17 µL/min/mg	< 8 µL/min/mg	8900 nM	
COc1cc(NC(C(=O)c2c[nH]c3cc(F)ccc23)c2ccc(Cl)cc2OC)cc(OCCO)c1 (single isomer, unassigned; (+))						Activity (dengue virus type 2 [17]): Dose-Dependent Effect
COc1cc(NC(C(=O)c2c[nH]c3cc(F)ccc23)c2ccc(Cl)cc2OC)cc(OCCO)c1 (stereo in doubt; 24)						EC50 (dengue virus type 4): 360 nM; EC50 (dengue virus type 2 [8]): 1 nM
COc1cc(NC(C(=O)c2c[nH]c3cc(F)ccc23)c2ccc(F)cc2)cc(OCCO)c1 (stereo in doubt; (-)-7b)						EC50 (dengue virus type 2 [1]; vero): 93 nM

Further lines, with some results ahead:

EC50 (dengue virus type 2 [1]; Dengue virus, 16681, Vero)	microsomal CLint [3]	microsomal CLint [4]	microsomal CLint [5]	SMILES	CC50 [2]	further results
49 nM	< 8 µL/min/mg	37 µL/min/mg	201 µL/min/mg	COc1cc(NC(C(=O)c2c[nH]c3ccccc23)c2ccccc2)cc(OCCO)c1 (centres undefined)	21000 nM	EC50 (dengue virus type 1): 180 nM; EC50 (dengue virus type 3): 1000 nM; EC50 (dengue virus type 4): 3900 nM; clearance [6]: 34.7 mL/min/kg; clearance [7]: 54 mL/min/kg; EC50 (dengue virus type 2 [8]): 32 nM
16 nM	< 8 µL/min/mg	10 µL/min/mg	50 µL/min/mg	COc1cc(NC(C(=O)c2c[nH]c3ccc(F)cc23)c2ccc(F)cc2)cc(OCCO)c1 (centres undefined)	14000 nM	
4 nM	< 8 µL/min/mg	30 µL/min/mg	26 µL/min/mg	COc1cc(NC(C(=O)c2c[nH]c3cc(F)ccc23)c2ccc(F)cc2OC)cc(OCCO)c1 (centres undefined)	8400 nM	EC50 (dengue virus type 4): 870 nM; clearance [6]: 39.2 mL/min/kg; EC50 (dengue virus type 2 [8]): 9 nM; Vd [9]: 7.6 L/kg; half-life [10]: 3.2 h; Cmax [11]: 135 ng/mL; AUC(0-t) [12]: 1110 ng·h/mL; bioavailability [13]: 26%; solubility kinetic at 4 h [14]: 18 µM (≈ 8.68 µg/mL); solubility kinetic at 4 h [15]: 18 µM (≈ 8.68 µg/mL); solubility kinetic at 4 h [16]: 69 µM (≈ 33.3 µg/mL)
2 nM	< 8 µL/min/mg	24 µL/min/mg	< 8 µL/min/mg	COc1cc(NC(C(=O)c2c[nH]c3cc(Cl)ccc23)c2ccc(F)cc2OC)cc(OCCO)c1 (centres undefined)	5900 nM	
41 nM				COc1cc(NC(C(=O)c2c[nH]c3cc(F)ccc23)c2ccc(F)cc2OCCO)cc(OCCO)c1 (centres undefined)	14000 nM	
9 nM				COc1cc(NC(C(=O)c2c[nH]c3cc(F)ccc23)c2ccc(F)cc2F)cc(OCCO)c1 (centres undefined)	13000 nM	
6 nM				COc1cc(NC(C(=O)c2c[nH]c3cc(F)ccc23)c2ccc(F)cc2Cl)cc(OCCO)c1 (single isomer, unassigned; (-))	8200 nM	
	< 8 µL/min/mg	< 8 µL/min/mg	26 µL/min/mg	COc1cc(NC(C(=O)c2c[nH]c3cc(F)ccc23)c2ccc(F)cc2)cc(OCCO)c1 (stereo in doubt)	13000 nM	EC50 (dengue virus type 2 [1]; vero): 15 nM; EC50 (dengue virus type 1): 49 nM; EC50 (dengue virus type 3): 420 nM; EC50 (dengue virus type 4): 870 nM; clearance [6]: 13.9 mL/min/kg; clearance [7]: 37.1 mL/min/kg; EC50 (dengue virus type 2 [8]): 12 nM; Vd [9]: 7.3 L/kg; half-life [10]: 6 h; Cmax [11]: 295 ng/mL; AUC(0-t) [12]: 4370 ng·h/mL; bioavailability [13]: 40%
